Results: patent US20120101083A1, “S1P1 AGONISTS COMPRISING A BICYCLIC N-CONTAINING RING” (GLAXO GROUP LIMITED, priority 2009, published 2012)
Structures can show the parent of a compound that is named as a salt.

Target: T1, S1P1 receptor (S1P1 expressing RH7777 membranes) (Homo sapiens, UniProt P21453)
T1 construct: expressed in transfected cells; host or cells: RH7777 cells (membranes)
Test: S1P1 GTPγS assay
Assay type: biochemical
Experimental: The potencies and efficacies of the compounds of this invention for the S1P1 receptor can be determined by GTPγS assay performed on the human cloned receptor as described herein.
Membrane preparation for S1P1 GTPγS assay
All steps were performed at 4° C. Cells were homogenised within a glass Waring blender for 2 bursts of 15 secs in 200 mls of buffer (50 mM HEPES, 1 mM leupeptin, 25 μg/ml bacitracin, 1 mM EDTA, 1 mM PMSF, 2 μM pepstatin A). The blender was plunged into ice for 5 mins after the first burst and 10-40 mins after the final burst to allow foam to dissipate. The material was then spun at 500 g for 20 mins and the supernatant spun for 36 mins at 48,000 g. The pellet was resuspended in the same buffer as above but without PMSF and pepstatin A. The material was then forced through a 0.6 mm needle, made up to the required volume, (usually x4 the volume of the original cell pellet), aliquoted and stored frozen at −80° C.
S1P1 expressing RH7777 membranes (1.5 μg/well) membranes (1.5 μg/well) were homogenised by passing through a 23 G needle. These were then adhered to WGA-coated SPA beads (0.125 mg/well) in assay buffer (HEPES 20 mM, MgCl2 10 mM, NaCl 100 mM and pH adjusted to 7.4 using KOH 5M). GDP 10 μM FAC and saponin 90 μg/ml FAC were also added
After 30 minutes precoupling on ice, the bead and membrane suspension was dispensed into white Greiner polypropylene LV 384-well plates (5 μl/well), containing […] of compound. 5 μl/well [^35S]-GTPγS (0.5 nM for S1P1 or 0.3 nM for S1P3 final radioligand concentration) made in assay buffer was then added to the plates. The final assay cocktail (10.1 μl) was then sealed, spun on a centrifuge, then read immediately on a Viewlux instrument.
Alternatively, after 30 minutes precoupling on ice, the bead and membrane suspension was mixed with ^35S]-GTPγS (0.5 nM final radioligand concentration) in assay buffer (HEPES 20 mM, MgCl2 10 mM, NaCl 100 mM and pH adjusted to 7.4 using KOH 5M) in a 1:1 ratio. The bead, membrane and radioligand suspension was dispensed into white Greiner polypropylene low volume 384-well plates (10 μl/well), containing 0.1 μl of a solution of test compound in 100% DMSO. The final assay cocktail (10.1 μl) was then sealed, spun on a centrifuge, then read immediately on a Viewlux instrument.

[1] = tested in one of the above S1P1 assays (two GTPγS formats)

T1 sequence (P21453 whole entry): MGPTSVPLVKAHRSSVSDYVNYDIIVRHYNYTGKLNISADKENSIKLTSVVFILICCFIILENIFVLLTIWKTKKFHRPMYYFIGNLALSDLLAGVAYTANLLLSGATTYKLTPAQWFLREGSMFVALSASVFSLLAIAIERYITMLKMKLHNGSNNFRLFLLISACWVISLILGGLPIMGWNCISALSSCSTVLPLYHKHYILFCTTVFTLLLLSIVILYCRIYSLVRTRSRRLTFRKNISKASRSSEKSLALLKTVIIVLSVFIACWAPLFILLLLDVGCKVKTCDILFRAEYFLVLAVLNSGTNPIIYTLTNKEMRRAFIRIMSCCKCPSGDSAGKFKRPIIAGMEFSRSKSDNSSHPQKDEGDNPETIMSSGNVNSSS

SMILES | EC50 [1] | EC50 (S1P1 GTPγS assay, first format, [35S]-GTPγS 0.5 nM)
CNC(=O)CCN1CCc2c(ccc(-c3nnc(-c4ccc(OC(C)C)c(C#N)c4)s3)c2C)C1 [Example 11, 3-[6-(5-{3-Cyano-4-[(1-methylethyl)oxy]phenyl}-1,3,4-thiadiazol-2-yl)-5-methyl-3,4-dihydro-2(1H)-isoquinolinyl]-N-methylpropanamide] | ≤ 100 nM | 
Cc1c(-c2nnc(-c3ccc(OC(C)C)c(C#N)c3)s2)ccc2c1CCN(CCC(=O)N(C)C)C2 [Example 12, 3-[6-(5-{3-Cyano-4-[(1-methylethyl)oxy]phenyl}-1,3,4-thiadiazol-2-yl)-5-methyl-3,4-dihydro-2(1H)-isoquinolinyl]-N,N-dimethylpropanamide] | ≤ 100 nM | 
Cc1c(-c2nnc(-c3ccc(OC(C)C)c(C#N)c3)s2)ccc2c1CCN(CCCC(N)=O)C2 [Example 13, 4-[6-(5-{3-Cyano-4-[(1-methylethyl)oxy]phenyl}-1,3,4-thiadiazol-2-yl)-5-methyl-3,4-dihydro-2(1H)-isoquinolinyl]butanamide] | ≤ 1000 nM | 
CNC(=O)CCCN1CCc2c(ccc(-c3nnc(-c4ccc(OC(C)C)c(C#N)c4)s3)c2C)C1 [Example 14, 4-[6-(5-{3-Cyano-4-[(1-methylethyl)oxy]phenyl}-1,3,4-thiadiazol-2-yl)-5-methyl-3,4-dihydro-2(1H)-isoquinolinyl]-N-methylbutanamide] | ≤ 1000 nM | 
Cc1c(-c2nnc(-c3ccc(OC(C)C)c(C#N)c3)s2)ccc2c1CCN(CCO)C2 [Example 15, 5-{5-[2-(2-Hydroxyethyl)-5-methyl-1,2,3,4-tetrahydro-6-isoquinolinyl]-1,3,4-thiadiazol-2-yl}-2-[(1-methylethyl)oxy]benzonitrile] | ≤ 100 nM | 
Cc1c(-c2nnc(-c3ccc(OC(C)C)c(C#N)c3)s2)ccc2c1CCN(CCCO)C2 [Example 16, 5-{5-[2-(3-Hydroxypropyl)-5-methyl-1,2,3,4-tetrahydro-6-isoquinolinyl]-1,3,4-thiadiazol-2-yl}-2-[(1-methylethyl)oxy]benzonitrile] | ≤ 1000 nM | 
COCCN1CCc2c(ccc(-c3nnc(-c4ccc(OC(C)C)c(C#N)c4)s3)c2C)C1 [Example 17, 2-[(1-Methylethyl)oxy]-5-(5-{5-methyl-2-[2-(methyloxy)ethyl]-1,2,3,4-tetrahydro-6-isoquinolinyl}-1,3,4-thiadiazol-2-yl)benzonitrile hydrochloride] | ≤ 1000 nM | 
Cc1c(-c2nnc(-c3ccc(OC(C)C)c(C#N)c3)s2)ccc2c1CCN(CC(O)CO)C2 (stereo not drawn) [Example 18, 5-{5-[2-(2,3-Dihydroxypropyl)-5-methyl-1,2,3,4-tetrahydro-6-isoquinolinyl]-1,3,4-thiadiazol-2-yl}-2-[(1-methylethyl)oxy]benzonitrile] | > 10000 nM | 2000 nM
CC(C)Oc1ccc(-c2nc(-c3ccc4c(c3)CCN(CCO)CC4)no2)cc1C#N [Example 19, 5-{3-[3-(2-Hydroxyethyl)-2,3,4,5-tetrahydro-1H-3-benzazepin-7-yl]-1,2,4-oxadiazol-5-yl}-2-[(1-methylethyl)oxy]benzonitrile] | ≤ 100 nM | 
CC(C)Oc1ccc(-c2nc(-c3ccc4c(c3)CCN(CCCO)CC4)no2)cc1C#N [Example 20, 5-{3-[3-(3-Hydroxypropyl)-2,3,4,5-tetrahydro-1H-3-benzazepin-7-yl]-1,2,4-oxadiazol-5-yl}-2-[(1-methylethyl)oxy]benzonitrile] | ≤ 100 nM | 
COCCN1CCc2ccc(-c3noc(-c4ccc(OC(C)C)c(C#N)c4)n3)cc2CC1 [Example 21, 2-[(1-Methylethyl)oxy]-5-(3-{3-[2-(methyloxy)ethyl]-2,3,4,5-tetrahydro-1H-3-benzazepin-7-yl}-1,2,4-oxadiazol-5-yl)benzonitrile] | ≤ 100 nM | 
CC(C)Oc1ccc(-c2nc(-c3ccc4c(c3)CCN(CC(O)CO)CC4)no2)cc1C#N (stereo not drawn) [Example 27, 5-{3-[3-(2,3-Dihydroxypropyl)-2,3,4,5-tetrahydro-1H-3-benzazepin-7-yl]-1,2,4-oxadiazol-5-yl}-2-[(1-methylethyl)oxy]benzonitrile] | ≤ 100 nM | 
CC(C)Oc1ccc(-c2nnc(-c3ccc4c(c3)CCN(CCO)CC4)s2)cc1C#N [Example 28, 5-{5-[3-(2-Hydroxyethyl)-2,3,4,5-tetrahydro-1H-3-benzazepin-7-yl]-1,3,4-thiadiazol-2-yl}-2-[(1-methylethyl)oxy]benzonitrile hydrochloride] | ≤ 1000 nM | 

Further lines, results first:

EC50 [1] | EC50 (S1P1 GTPγS assay, first format, [35S]-GTPγS 0.5 nM) | SMILES
≤ 100 nM |  | CC(C)Oc1ncc(-c2nc(-c3ccc4c(c3)CCN(CC(O)CO)CC4)no2)cc1C#N (stereo in doubt) [Example 97, 5-(3-{3-[(2R)-2,3-dihydroxypropyl]-2,3,4,5-tetrahydro-1H-3-benzazepin-7-yl}-1,2,4-oxadiazol-5-yl)-2-[(1-methylethyl)oxy]-3-pyridinecarbonitrile]
≤ 1000 nM |  | CC(C)Oc1ccc(-c2nnc(-c3ccc4c(c3)CCN(CCCO)CC4)s2)cc1C#N [Example 29, 5-{5-[3-(3-Hydroxypropyl)-2,3,4,5-tetrahydro-1H-3-benzazepin-7-yl]-1,3,4-thiadiazol-2-yl}-2-[(1-methylethyl)oxy]benzonitrile]
≤ 1000 nM |  | COCCN1CCc2ccc(-c3nnc(-c4ccc(OC(C)C)c(C#N)c4)s3)cc2CC1 [Example 30, 2-[(1-Methylethyl)oxy]-5-(5-{3-[2-(methyloxy)ethyl]-2,3,4,5-tetrahydro-1H-3-benzazepin-7-yl}-1,3,4-thiadiazol-2-yl)benzonitrile hydrochloride]
≤ 1000 nM |  | CC(C)Oc1ccc(-c2nc(-c3cccc4c3CCN(CC(N)=O)CC4)no2)cc1C#N [Example 31, 2-[6-(5-{3-Cyano-4-[(1-methylethyl)oxy]phenyl}-1,2,4-oxadiazol-3-yl)-1,2,4,5-tetrahydro-3H-3-benzazepin-3-yl]acetamide]
≤ 1000 nM |  | CC(C)Oc1ccc(-c2nc(-c3cccc4c3CCN(CCC(N)=O)CC4)no2)cc1C#N [Example 32, 3-[6-(5-{3-Cyano-4-[(1-methylethyl)oxy]phenyl}-1,2,4-oxadiazol-3-yl)-1,2,4,5-tetrahydro-3H-3-benzazepin-3-yl]propanamide]
≤ 100 nM |  | CC(C)Oc1ccc(-c2nc(-c3cccc4c3CCN(CCCO)CC4)no2)cc1C#N [Example 33, 5-{3-[3-(3-Hydroxypropyl)-2,3,4,5-tetrahydro-1H-3-benzazepin-6-yl]-1,2,4-oxadiazol-5-yl}-2-[(1-methylethyl)oxy]benzonitrile]
≤ 100 nM |  | CC(C)Oc1ccc(-c2nc(-c3cccc4c3CCN(CCO)CC4)no2)cc1C#N [Example 34, 5-{3-[3-(2-Hydroxyethyl)-2,3,4,5-tetrahydro-1H-3-benzazepin-6-yl]-1,2,4-oxadiazol-5-yl}-2-[(1-methylethyl)oxy]benzonitrile]
≤ 100 nM |  | CC(C)Oc1ccc(-c2nc(-c3cccc4c3CCN(CC(O)CO)CC4)no2)cc1C#N (stereo not drawn) [Example 35, 5-{3-[3-(2,3-Dihydroxypropyl)-2,3,4,5-tetrahydro-1H-3-benzazepin-6-yl]-1,2,4-oxadiazol-5-yl}-2-[(1-methylethyl)oxy]benzonitrile hydrochloride]
≤ 1000 nM |  | CC(C)Oc1ccc(-c2nnc(-c3cccc4c3CCN(CCO)C4)s2)cc1C#N [Example 38, 5-{5-[2-(2-hydroxyethyl)-1,2,3,4-tetrahydro-5-isoquinolinyl]-1,3,4-thiadiazol-2-yl}-2-[(1-methylethyl)oxy]benzonitrile]
> 10000 nM |  | CNC(=O)CCN1CCc2c(cccc2-c2nnc(-c3ccc(OC(C)C)c(C#N)c3)s2)C1 [Example 45, 3-[5-(5-{3-cyano-4-[(1-methylethyl)oxy]phenyl}-1,3,4-thiadiazol-2-yl)-3,4-dihydro-2(1H)-isoquinolinyl]-N-methylpropanamide]
≤ 1000 nM |  | CC(C)Oc1ccc(-c2nnc(-c3cccc4c3CCN(CCC(=O)N(C)C)C4)s2)cc1C#N [Example 46, 3-[5-(5-{3-cyano-4-[(1-methylethyl)oxy]phenyl}-1,3,4-thiadiazol-2-yl)-3,4-dihydro-2(1H)-isoquinolinyl]-N,N-dimethylpropanamide]
≤ 100 nM |  | CC(C)Nc1ccc(-c2nc(-c3ccc4c(c3)CCN(CC(O)CO)CC4)no2)cc1C#N (stereo not drawn) [Example 49, 5-{3-[3-(2,3-dihydroxypropyl)-2,3,4,5-tetrahydro-1H-3-benzazepin-7-yl]-1,2,4-oxadiazol-5-yl}-2-[(1-methylethyl)amino]benzonitrile]
≤ 100 nM |  | CCCNc1ccc(-c2nc(-c3ccc4c(c3)CCN(CC(O)CO)CC4)no2)cc1C#N (stereo not drawn) [Example 50, 5-{3-[3-(2,3-dihydroxypropyl)-2,3,4,5-tetrahydro-1H-3-benzazepin-7-yl]-1,2,4-oxadiazol-5-yl}-2-(propylamino)benzonitrile]
